The assay addresses T1, rat isoform of TRPM8 channels (Rattus norvegicus, UniProt Q8R455).
T1 construct: expressed in transfected cells
Briefly: Ca2+ fluorimetric assay, menthol-activated channel. Format: cell-based. The protocol: TRPM8 blocker activity of all synthesized compounds was tested by Ca^2+ fluorimetric assays using HEK-293 cells stably expressing the rat isoform of TRPM8 channels, using menthol and AMTB as prototypical agonist and antagonist, respectively.
For measurement of the potency of the compounds, fluorimetric experiments were performed using HEK-293 cells (CRL-1573TM, American Type Culture Collection, LGC Promochem, Molsheim, France) that stably express rat TRPM8. The cells were seeded in 96-well plates (Corning Incorporated, Corning, NY) at a cell density of 40 000 cells 2 days before treatment. On the day of treatment, the medium was replaced with 100 μL of the dye loading solution Fluo-4 NW supplemented with probenecid 2.5 mM.
The tested molecules dissolved in DMSO were added at the desired concentrations, and the plates were incubated in darkness at 37 °C in a humidified atmosphere of 5% CO2 for 60 min. The fluorescence was measured using instrument settings appropriate for excitation at 485 nm and emission at 535 nm (POLARstar Omega BMG LABtech). A baseline recording of four cycles was recorded prior to stimulation with the agonist (100 μM menthol for TRPM8). The TRPM8 antagonist, 10 μM AMTB, was added to the medium containing the corresponding agonist to induce channel blockade. The changes in fluorescence intensity were recorded during 15 cycles more. The higher concentration of DMSO used in the experiment was added to the control wells. The cells’ fluorescence was measured before and after the addition of various concentrations of test compounds. The fluorescence values obtained are normalized to that prompted by the corresponding agonist (for channel activating compounds) or upon agonist and antagonist coexposure (for channel blocker compounds).

Setting [1] is: HEK-293 cells stably expressing rat TRPM8, menthol as agonist, mean ± SD of at least three measurements, read-out: IC50.
The mark [2] stands for this setting: supplementary xlsx, read-out: rTRPM8 IC50 (calcium microfluorimetric assays).

This is an account of results in publication PMC8009520, “Exploration of TRPM8 Binding Sites by β-Carboline-Based Antagonists and Their In Vitro Characterization and In Vivo Analgesic Activities” (Journal of Medicinal Chemistry, 2020).

Where two headings read alike, the source gives them in different places. Where only a bound is given, the exact number is not on record here.

T1 sequence (Q8R455 whole entry, canonical isoform): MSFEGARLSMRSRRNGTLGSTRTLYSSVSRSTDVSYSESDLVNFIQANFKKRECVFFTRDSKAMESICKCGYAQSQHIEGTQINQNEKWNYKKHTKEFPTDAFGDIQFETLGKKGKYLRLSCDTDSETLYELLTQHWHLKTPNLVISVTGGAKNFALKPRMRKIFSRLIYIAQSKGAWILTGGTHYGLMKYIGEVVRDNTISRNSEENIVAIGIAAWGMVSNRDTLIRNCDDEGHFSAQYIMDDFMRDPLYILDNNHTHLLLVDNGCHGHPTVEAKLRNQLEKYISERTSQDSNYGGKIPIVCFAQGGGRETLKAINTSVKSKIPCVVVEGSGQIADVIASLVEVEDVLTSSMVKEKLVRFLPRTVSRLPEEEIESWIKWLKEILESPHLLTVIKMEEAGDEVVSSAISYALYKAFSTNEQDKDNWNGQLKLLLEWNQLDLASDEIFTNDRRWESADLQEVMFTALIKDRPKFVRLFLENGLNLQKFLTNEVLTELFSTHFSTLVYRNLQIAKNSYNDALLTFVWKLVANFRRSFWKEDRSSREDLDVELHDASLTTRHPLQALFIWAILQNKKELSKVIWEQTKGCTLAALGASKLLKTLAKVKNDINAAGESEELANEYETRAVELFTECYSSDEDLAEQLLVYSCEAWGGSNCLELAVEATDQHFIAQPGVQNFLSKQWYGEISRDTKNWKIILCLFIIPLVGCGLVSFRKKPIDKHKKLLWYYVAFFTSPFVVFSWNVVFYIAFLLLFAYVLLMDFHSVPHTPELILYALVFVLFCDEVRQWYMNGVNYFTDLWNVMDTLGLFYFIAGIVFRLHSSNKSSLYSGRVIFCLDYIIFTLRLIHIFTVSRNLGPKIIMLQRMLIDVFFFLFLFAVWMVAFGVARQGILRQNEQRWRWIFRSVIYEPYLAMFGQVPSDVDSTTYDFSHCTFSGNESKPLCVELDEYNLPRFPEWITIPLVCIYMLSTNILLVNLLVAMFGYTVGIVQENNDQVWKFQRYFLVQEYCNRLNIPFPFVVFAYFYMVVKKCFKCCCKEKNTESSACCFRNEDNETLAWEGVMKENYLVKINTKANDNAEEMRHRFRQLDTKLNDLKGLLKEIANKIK

Broadly, the IC50 is the concentration that inhibits the measured activity by half. `COC(=O)[C@@H]1Cc2c([nH]c3ccccc23)[C@H](c2ccccc2)N1Cc1ccccc1` [6b, (1S,3S)-Methyl 2-Benzyl-1-phenyl-2,3,4,9-tetrahydro-1H-pyrido[3,4-b]indole-3-carboxylate]: the IC50 was found to be 1.6 ± 0.9 µM under setting [1] and 1.4 ± 1.3 µM under setting [2].

For the compound `O=C1N[C@@H](Cc2ccccc2)C(=O)N2Cc3[nH]c4ccccc4c3C[C@@H]12` [compound 22, (3S,12aS)-3-Benzyl-2,3,12,12a-tetrahydropyrazino[1′,2′:1,6]pyrido[3,4-b]indole-1,4(6H,7H)-dione], the IC50 runs as follows: under setting [1], 1.6 ± 0.7 µM; under setting [2], 1.2 ± 1.3 µM.

Regarding `O=C1[C@@H]2Cc3c([nH]c4ccccc34)[C@@H](c3ccc(F)cc3)N2C(=O)N1c1cccc(C(F)(F)F)c1` [36a, (5R,11aS)-5-(4-Fluorophenyl)-2-(3-(trifluoromethyl)phenyl)-5,6,11,11a-tetrahydro-1H-imidazo[1′,5′:1,6]pyrido[3,4-b]indole-1,3(2H)-dione], the IC50 under setting [1] was determined as 2.8 ± 1.5 µM. The rTRPM8 IC50 (calcium microfluorimetric assays) (supplementary xlsx) turned out to be 7.8 ± 2.4 µM.

Turning to `O=C(O)CC[C@@H]1N[C@H](C(=O)NCc2ccc(F)cc2)Cc2c1[nH]c1ccccc21` [12b, 3-((1S,3S)-3-((4-Fluorobenzyl)carbamoyl)-2,3,4,9-tetrahydro-1H-pyrido[3,4-b]indol-1-yl)propanoic Acid], under setting [1], the IC50 turned out to be 22 ± 1.4 µM.

For the compound `O=C1[C@@H]2Cc3c([nH]c4ccccc34)CN2C(=O)N1Cc1ccc(F)cc1` [compound 28, (S)-2-(4-Fluorobenzyl)-5,6,11,11a-tetrahydro-1H-imidazo[1′,5′:1,6]pyrido[3,4-b]indole-1,3(2H)-dione], the IC50 under setting [1] is 17.8 ± 1.2 µM.

`O=C1[C@@H]2Cc3c([nH]c4ccccc34)[C@@H](c3ccc(F)cc3)N2C(=O)N1Cc1ccccc1` [33a, (5R,11aS)-2-Benzyl-5-(4-fluorophenyl)-5,6,11,11a-tetrahydro-1H-imidazo[1′,5′:1,6]pyrido[3,4-b]indole-1,3(2H)-dione]: the IC50 under setting [1] was 6.4 ± 1.2 µM. Further, the rTRPM8 IC50 (calcium microfluorimetric assays) (supplementary xlsx) stood at 17.5 ± 1.4 µM.

In the case of `O=C1[C@H]2Cc3c([nH]c4ccccc34)[C@H](c3ccc(Cl)cc3)N2C(=O)N1Cc1ccc(F)cc1` [31a′, (5S,11aR)-5-(4-Chlorophenyl)-2-(4-fluorobenzyl)-5,6,11,11a-tetrahydro-1H-imidazo[1′,5′:1,6]pyrido[3,4-b]indole-1,3(2H)-dione], under setting [1], the half-maximal inhibitory concentration (IC50) was above 30 µM.

As to `CC(C)C[C@@H]1c2[nH]c3ccccc3c2C[C@H]2C(=O)N[C@@H](Cc3ccccc3)C(=O)N12` [25a, (3S,6R,12aS)-3-Benzyl-6-isobutyl-2,3,12,12a-tetrahydropyrazino[1′,2′:1,6]pyrido[3,4-b]indole-1,4(6H,7H)-dione], under setting [1], the IC50 is 4.1 ± 1.1 µM.

For `O=C1NCC(=O)N2[C@H](c3ccc(Cl)cc3)c3[nH]c4ccccc4c3C[C@@H]12` [27a, (6R,12aS)-6-(4-Chlorophenyl)-2,3,12,12a-tetrahydropyrazino[1′,2′:1,6]pyrido[3,4-b]indole-1,4(6H,7H)-dione], the IC50 under setting [1] turned out to be 1.5 ± 1.1 µM.

In the case of `O=C1[C@@H]2Cc3c([nH]c4ccccc34)[C@@H](c3ccc(F)cc3)N2C(=O)N1c1ccc(F)cc1` [38a, (5R,11aS)-2,5-Bis(4-fluorophenyl)-5,6,11,11a-tetrahydro-1H-imidazo[1′,5′:1,6]pyrido[3,4-b]indole-1,3(2H)-dione], under setting [1], the IC50 was determined as 6.7 ± 1.2 µM. Further, the rTRPM8 IC50 (calcium microfluorimetric assays) (supplementary xlsx) came out at 7.2 ± 0.9 µM.

As to `O=C1NCC(=O)N2[C@@H](c3ccc(Cl)cc3)c3[nH]c4ccccc4c3C[C@@H]12` [27b, (6S,12aS)-6-(4-Chlorophenyl)-2,3,12,12a-tetrahydropyrazino[1′,2′:1,6]pyrido[3,4-b]indole-1,4(6H,7H)-dione], the IC50 came to 1.7 ± 0.8 µM under setting [1] and 1.2 ± 1.7 µM under setting [2].

As to `NCCCN1C(=O)[C@@H]2Cc3c([nH]c4ccccc34)[C@@H](c3ccc(F)cc3)N2C1=O` [35a, (5R,11aS)-2-(3-Aminopropyl)-5-(4-fluorophenyl)-5,6,11,11a-tetrahydro-1H-imidazo[1′,5′:1,6]pyrido[3,4-b]indole-1,3(2H)-dione], the IC50 under setting [1] was 5.1 ± 1.2 µM. Also, under “supplementary xlsx”, the rTRPM8 IC50 (calcium microfluorimetric assays) was 27.2 ± 1.4 µM.

Take `Cc1ccc(CN2C(=O)[C@@H]3Cc4c([nH]c5ccccc45)[C@@H](c4ccc(Cl)cc4)N3C2=O)cc1` [30a, (5R,11aS)-5-(4-Chlorophenyl)-2-(4-methylbenzyl)-5,6,11,11a-tetrahydro-1H-imidazo[1′,5′:1,6]pyrido[3,4-b]indole-1,3(2H)-dione]: the IC50 under setting [1] is 0.8 ± 0.4 µM. The rTRPM8 IC50 (calcium microfluorimetric assays) (supplementary xlsx) was 2.3 ± 0.8 µM.

In the case of `Cc1cccc(COc2ccccc2C(=O)N(CCCN)Cc2cccs2)c1` [AMTB, reference compound], the IC50 under setting [1] was 7.3 ± 1.5 µM.

As to `CC(C)C[C@@H]1N[C@H](C(=O)NCc2ccc(F)cc2)Cc2c1[nH]c1ccccc21` [10b, (1S,3S)-N-(4-Fluorobenzyl)-1-isobutyl-2,3,4,9-tetrahydro-1H-pyrido[3,4-b]indole-3-carboxamide], the IC50 under setting [1] is 6.2 ± 1.2 µM.

Take `COc1ccc(CN2C(=O)[C@@H]3Cc4c([nH]c5ccccc45)[C@@H](CC(C)C)N3C2=O)cc1` [29a, (5R,11aS)-5-Isobutyl-2-(4-methoxybenzyl)-5,6,11,11a-tetrahydro-1H-imidazo[1′,5′:1,6]pyrido[3,4-b]indole-1,3(2H)-dione]: the IC50 under setting [1] is 2.8 ± 1.2 µM. The rTRPM8 IC50 (calcium microfluorimetric assays) (supplementary xlsx) was determined as 22.9 ± 1.4 µM.

Take `NCCCN1C(=O)[C@H]2Cc3c([nH]c4ccccc34)[C@H](c3ccc(F)cc3)N2C1=O` [35a′, (5S,11aR)-2-(3-Aminopropyl)-5-(4-fluorophenyl)-5,6,11,11a-tetrahydro-1H-imidazo[1′,5′:1,6]pyrido[3,4-b]indole-1,3(2H)-dione]: under setting [1], the IC50 was 27.2 ± 1.4 µM.

Turning to `CC(C)C[C@H]1c2[nH]c3ccccc3c2C[C@H]2C(=O)N[C@@H](Cc3ccccc3)C(=O)N21` [25b, (3S,6S,12aS)-3-Benzyl-6-isobutyl-2,3,12,12a-tetrahydropyrazino[1′,2′:1,6]pyrido[3,4-b]indole-1,4(6H,7H)-dione], the IC50 turned out to be 1.3 ± 0.6 µM under setting [1] and 0.9 ± 1.2 µM under setting [2].

For the compound `O=C1[C@@H]2Cc3c([nH]c4ccccc34)[C@@H](c3ccc(F)cc3)N2C(=O)N1c1ccccc1F` [37a, (5R,11aS)-2-(2-Fluorophenyl)-5-(4-fluorophenyl)-5,6,11,11a-tetrahydro-1H-imidazo[1′,5′:1,6]pyrido[3,4-b]indole-1,3(2H)-dione], the IC50 under setting [1] was 4.4 ± 1.3 µM. For the same compound, the rTRPM8 IC50 (calcium microfluorimetric assays) (supplementary xlsx) was 5.1 ± 2.1 µM.

As for `COC(=O)[C@@H]1Cc2c([nH]c3ccccc23)CN1C(=O)CCN` [compound 17, (S)-Methyl 2-(3-Aminopropanoyl)-2,3,4,9-tetrahydro-1H-pyrido[3,4-b]indole-3-carboxylate], under setting [1], the IC50 is above 100 µM.

For the compound `O=C1[C@H]2Cc3c([nH]c4ccccc34)[C@H](c3ccc(F)cc3)N2C(=O)N1c1ccccc1F` [37a′, (5S,11aR)-2-(2-Fluorophenyl)-5-(4-fluorophenyl)-5,6,11,11a-tetrahydro-1H-imidazo[1′,5′:1,6]pyrido[3,4-b]indole-1,3(2H)-dione], under setting [1], the IC50 was 5.1 ± 2.1 µM.

As to `COc1ccc(CN2C(=O)[C@H]3Cc4c([nH]c5ccccc45)[C@H](CC(C)C)N3C2=O)cc1` [29a′, (5S,11aR)-5-Isobutyl-2-(4-methoxybenzyl)-5,6,11,11a-tetrahydro-1H-imidazo[1′,5′:1,6]pyrido[3,4-b]indole-1,3(2H)-dione], the IC50 under setting [1] is 22.9 ± 1.4 µM.
